Consider three molecules from patent US5001115A, “Prodrugs of biologically active hydroxyaromatic compounds” (University of Florida, priority 1989, dated 1991).

Molecules are shown by their SMILES.

This data set in a line: Hydrolysis in pH=7.1 buffer at room temperature. In kind it is physicochemical. Here is the method:
The compounds: [drawing 4] were prepared similarly to the above product and their hydrolytic properties under similar conditions were evaluated.

For orientation: half-life means how long it takes for the measured level to halve.

As for `O=C1CCC(=O)N1COc1ccc([N+](=O)[O-])cc1` [(b)], under “similar conditions (pH=7.1 buffer, room temperature)”, the half-life is approximately 6 h.

For `O=C(NCOc1ccc([N+](=O)[O-])cc1)c1ccccc1` [Compound (a)], the “hydrolytic stability (in words)” value (pH=7.1, similar conditions) is “completely stable”.

For `O=C1c2ccccc2S(=O)(=O)N1COc1ccc([N+](=O)[O-])cc1` [Example 1, 4-Nitro-1-[1',1',3'-trioxo-(2'H)-1',2'-benzisothiazol-2'-yl]methoxybenzene], for the setting “pH=7.1 buffer, room temperature”, the half-life was approximately 0.283 h.
